This note sets out measurements from patent publication US20090305994A1, “Compounds Modulating Vegf Receptor and Uses Thereof” (priority 2005, published 2009).

Test [1] deals with BAEC. Description: Cells proliferation assay (cell number). The class given is cell-based, bovine. To be noted: 24 hours. The method, then: (§1) Effect of QK on cell proliferation. a) DNA synthesis. BAEC were incubated in DMEM with [^3H]-thymidine and QK in absence or in presence of VEGF165 (100 ng/ml). After 24 hours cells were fixed and lysed. Scintillation liquid was added and [^3H]-thymidine incorporation was evaluated. b) Cell proliferation. BAEC were stimulated with the indicated amount of QK in absence or in presence of VEGF165 (100 ng/ml). Cell number was determined at 24 hours after stimulation. c) RB phosphorylation. p-RB was evaluated at 12 and 18 hours after stimulation with QK (10^-6M), VEGF165 (100 ng/ml) and VEGF 15 (10^−6 M).
(§2) Cells proliferation assay. Cells were seeded at a density of 10000 per well in six well plates, serum starved overnight and then stimulated with QK (10-12 to 10^−6 M) in absence or in presence of VEGF165. Cell number was determined at 24 hours after stimulation. The p-RB, was evaluated by western blot 12 and 18 hours after stimulation with QK (10^−6 M), VEGF165 and VEGF 15 (10^−6 M).

Test [2] has as its system BAEC. Nature of the test: [3H]-thymidine incorporation (DNA synthesis). To be noted: 24 hours. The class given is cell-based, bovine. The procedure:
as §1
[^3H]-thymidine incorporation. Cells were serum starved for 24 hours and then incubated in DMEM with [^3H]-thymidine (Amersham) and QK alone (10^−12-10^−6 M) or with a combination of QK and VEGF165. After 24 hours cells were fixed with trichloracetic acid ([…]) and dissolved in NaOH 1M. Scintillation liquid was added and thymidine incorporation was evaluated with a beta counter.

Test [3] deals with Human endothelial cells. Description: Angiogenesis in vitro assay (Angiokit, tubule formation, CD31 staining). The class given is cell-based. To be noted: eleventh day.
Description: In vitro angiogenic properties of QK. Human endothelial cells were co-cultured with other human cells in a specially designed medium in a 24 well plate. Every three days, QK alone or a combination of QK and VEGF165 (100 ng/ml) was added to the cultures. On the eleventh day, cells were fixed with ice cold 70% ethanol and tubule formation was visualized by staining for anti-human CD31 (PECAM-1).
Angiogenesis in vitro assay. Human endothelial cells were co-cultured with other human cells in a specially designed medium (Angiokit, TCS CellWorks), in a 24 well plates. Every three days, QK in absence or in presence of VEGF165 was added to the cultures. VEGF and suramine (20 μM) were used as positive and negative controls respectively. […] On the eleventh day, cells were fixed with ice cold 70% ethanol and tubule formation was visualized by staining for anti-human CD31 (PECAM-1). Results were scored with the image analysis software, Angiosys software (TCS CellWorks).
In vitro angiogenesis assay. […] Tubule formation was evaluated by positive staining for CD31/PECAM-1, an intercellular adhesion molecule involved in leucocytes diapedesis. We determined the number of cell junctions corrected by the total tubules length.
Test [4] deals with RB. Description: RB phosphorylation (western blot). In kind it is cell-based, bovine. To be noted: 12 and 18 hours; QK 10^-6 M, VEGF165 100 ng/ml, VEGF 15 10^-6 M. The method, then: as §1, §2
The target in test [5] is T1, Flt-1 (Bos taurus, UniProt F1MDD9).
T1 construct: we immunoprecipitated total KDR and Flt-1 from BAEC whole extracts; endogenous in cells; host or cells: BAEC (bovine aorta endothelial cells, SV40-immortalized)
T1 sequence (F1MDD9 1-1251): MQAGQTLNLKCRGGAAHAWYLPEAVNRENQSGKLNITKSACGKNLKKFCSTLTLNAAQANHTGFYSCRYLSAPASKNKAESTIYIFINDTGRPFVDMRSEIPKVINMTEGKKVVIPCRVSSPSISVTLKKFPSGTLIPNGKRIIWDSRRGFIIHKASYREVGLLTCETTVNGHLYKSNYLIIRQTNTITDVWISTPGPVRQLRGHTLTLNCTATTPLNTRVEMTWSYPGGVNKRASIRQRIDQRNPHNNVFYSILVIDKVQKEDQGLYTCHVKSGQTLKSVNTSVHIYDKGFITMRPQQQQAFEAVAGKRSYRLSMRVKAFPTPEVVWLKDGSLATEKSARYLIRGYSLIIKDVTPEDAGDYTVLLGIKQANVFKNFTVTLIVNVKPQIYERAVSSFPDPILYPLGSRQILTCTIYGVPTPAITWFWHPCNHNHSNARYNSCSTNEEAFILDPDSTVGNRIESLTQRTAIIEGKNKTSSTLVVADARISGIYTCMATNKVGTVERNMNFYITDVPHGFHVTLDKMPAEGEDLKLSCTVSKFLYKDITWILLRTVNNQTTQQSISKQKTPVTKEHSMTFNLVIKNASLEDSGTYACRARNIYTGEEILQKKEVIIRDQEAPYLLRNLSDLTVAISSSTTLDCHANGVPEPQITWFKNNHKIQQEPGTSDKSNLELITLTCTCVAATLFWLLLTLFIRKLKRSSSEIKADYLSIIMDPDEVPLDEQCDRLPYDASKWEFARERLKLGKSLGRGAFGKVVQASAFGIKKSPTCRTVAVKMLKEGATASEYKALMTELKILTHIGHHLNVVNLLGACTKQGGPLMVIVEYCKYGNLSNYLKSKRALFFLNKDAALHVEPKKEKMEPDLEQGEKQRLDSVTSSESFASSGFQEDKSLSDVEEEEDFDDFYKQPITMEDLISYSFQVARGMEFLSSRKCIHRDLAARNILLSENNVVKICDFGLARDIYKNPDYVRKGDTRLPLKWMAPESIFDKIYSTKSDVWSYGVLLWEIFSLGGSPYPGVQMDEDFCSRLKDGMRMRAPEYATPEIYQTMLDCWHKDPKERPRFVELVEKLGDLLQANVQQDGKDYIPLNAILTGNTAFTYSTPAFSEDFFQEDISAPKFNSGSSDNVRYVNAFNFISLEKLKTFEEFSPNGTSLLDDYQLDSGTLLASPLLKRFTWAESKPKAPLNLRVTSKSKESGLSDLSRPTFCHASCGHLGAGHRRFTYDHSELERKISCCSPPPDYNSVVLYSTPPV
Description: Flt-1 activation (immunoprecipitation, phospho-tyrosine western blot) in BAEC. In kind it is cell-based, bovine. To be noted: 15 minutes of exposure. The procedure: VEGF receptors binding and activation. a) VEGF competitive binding on BAEC. 1 μg of membrane protein was plated with QK and [^125I]-VEGF (500000 cpm, 10^−10 M). b) KDR activation. After stimulation total KDR was immunoprecipitated from a whole-cell protein extracts and phospho-tyrosine was visualized by a specific antibody, anti-rabbit HRP-conjugated secondary antibody and standard chemiluminescence. c) Flt-1 activation. After stimulation total Flt-1 was immunoprecipitated from a whole-cell protein extracts and phospho-tyrosine was visualized by specific antibody, anti-rabbit HRP-conjugated secondary antibody and standard chemiluminescence.
Western blot. Cells were plated on six-well dishes and serum starved overnight. On the next day, cells were treated with different amount of peptide in absence or in presence of VEGF165 for 15 minutes at 37° C. and then dissolved in RIPA-SDS buffer (50 mM Tris-HCl (pH 7.5), 150 mM NaCl, 1% NP-40, 0.25% deoxycholate, 9.4 mg/50 ml sodium orthovanadate, […]). In some experiments, total KDR and Flt-1 were immunoprecipitated from an equal amount of whole-cell protein extracts using protein A/G agarose beads conjugated with antibodies raised against total KDR or Flt-1 (R&D). Proteins from whole-cell extracts or immunocomplexes were resolved by PAGE and transferred to nitrocellulose. […]

KLTWQELYQLKYKGI [QK]: in test [1] (peptide alone), the “cell proliferation (cell number)” value is listed as “produces cell proliferation per se”. Also, the “cell proliferation in presence of VEGF” value in test [1] (with VEGF165 100 ng/ml) is reported as “enhances VEGF response”. Moreover, in test [2] (peptide alone), the “DNA synthesis ([3H]-thymidine incorporation)” value is reported as “increased DNA synthesis at any dosages”. The “DNA synthesis in presence of VEGF” value in test [2] (with VEGF165 100 ng/ml) is given as “the effect was enhanced in presence of VEGF”. In addition, the “formation of new connections” value in test [3] (peptide alone) was “induced the formation of new connections in a dose dependent manner”. Also, the “formation of new connections in presence of VEGF165” value in test [3] (with VEGF165 100 ng/ml) is “enhanced the response to VEGF165”. Besides, the “phosphorylation of the cyclin RB” value in test [4] is reported as “enhanced phosphorylation of the cyclin RB”. The Flt-1 phosphorylation result in test [5] is reported as “increased the levels of phosphorylation of Flt-1”.
